In ChEMBL document CHEMBL3885881, “DrugMatrix”:

Organism: Rattus norvegicus
Assay: DrugMatrix - Regimen: Daily Repeat
Type: toxicity, organism-based, Sprague-Dawley
Parameters: regimen Daily Repeat, gender Male, age 6-8 weeks
Details: in vivo, po, route oral GAVAGE, vehicle .5 % CMC; for TOTAL PROTEIN / ALANINE AMINOTRANSFERASE / ALBUMIN / ALKALINE PHOSPHATASE / ASPARTATE AMINOTRANSFERASE / CARBON DIOXIDE / CHLORIDE / CHOLESTEROL / CREATINE PHOSPHOKINASE / CREATININE / GLUCOSE / LACTATE DEHYDROGENASE / LIPASE / PHOSPHORUS / POTASSIUM / SODIUM / TOTAL BILIRUBIN / BLOOD UREA NITROGEN: tissue Plasma; for ABSOLUTE BASOPHIL / ABSOLUTE EOSINOPHIL / ABSOLUTE LYMPHOCYTE / ABSOLUTE MONOCYTE / ABSOLUTE SEGMENTED NEUTROPHIL / BASOPHIL / EOSINOPHIL / ERYTHROCYTE COUNT / HEMATOCRIT / HEMOGLOBIN / LEUKOCYTE COUNT / LYMPHOCYTE / MEAN CORPUSCULAR HEMOGLOBIN / MEAN CORPUSCULAR HEMOGLOBIN CONCENTRATION / MEAN CORPUSCULAR VOLUME / MONOCYTE / NEUTROPHIL / NUCLEATED RED BLOOD CELLS / PLATELET COUNT: tissue Blood
[1] = 25 mg/kg, 120 h, dose level Low, time 5 day
[2] = 1500 mg/kg, 72 h, dose level High, time 3 day
[3] = 1500 mg/kg, 120 h, dose level High, time 5 day

Q: What does the source list for `COc1cc(/C=C/C(=O)O)ccc1O` [FERULATE]?
A: TOTAL PROTEIN (25 mg/kg, 72 h, dose level Low, time 3 day): 5.97 G/DL; ABSOLUTE BASOPHIL [1]: 0 CELLS/uL; ABSOLUTE EOSINOPHIL [1]: 170 CELLS/uL; ABSOLUTE LYMPHOCYTE [1]: 14805 CELLS/uL; ABSOLUTE MONOCYTE [1]: 286 CELLS/uL; ABSOLUTE SEGMENTED NEUTROPHIL [1]: 1439 CELLS/uL; BASOPHIL [1]: 0%; EOSINOPHIL [1]: 1.33%; ERYTHROCYTE COUNT [1]: 5.63 x10E6/uL; HEMATOCRIT [1]: 35.7%; HEMOGLOBIN [1]: 13.7 G/DL; LEUKOCYTE COUNT [1]: 16.7 x10E3/uL; LYMPHOCYTE [1]: 87.67%; MEAN CORPUSCULAR HEMOGLOBIN [1]: 24.43 pg; MEAN CORPUSCULAR HEMOGLOBIN CONCENTRATION [1]: 38.37 G/DL; MEAN CORPUSCULAR VOLUME [1]: 63.63 fL; MONOCYTE [1]: 1.67%; NEUTROPHIL [1]: 9.33%; NUCLEATED RED BLOOD CELLS [1]: 0.33 /100WBC; PLATELET COUNT [1]: 1379.67 x10E3/uL; ALANINE AMINOTRANSFERASE [1]: 52.67 u/L; ALBUMIN [1]: 4.27 G/DL; ALKALINE PHOSPHATASE [1]: 350.33 u/L; ASPARTATE AMINOTRANSFERASE [1]: 91.33 u/L; CARBON DIOXIDE [1]: 28 mmol/L; CHLORIDE [1]: 104.67 MEQ/L; CHOLESTEROL [1]: 79.67 mg/dL; CREATINE PHOSPHOKINASE [1]: 317 u/L; CREATININE [1]: 0.18 mg/dL; GLUCOSE [1]: 160.67 mg/dL; LACTATE DEHYDROGENASE [1]: 421.67 u/L; LIPASE [1]: 9.33 u/L; PHOSPHORUS [1]: 12.9 mg/dL; POTASSIUM [1]: 6.65 MEQ/L; SODIUM [1]: 144.87 MEQ/L; TOTAL BILIRUBIN [1]: 0.17 mg/dL; TOTAL PROTEIN [1]: 5.93 G/DL; ABSOLUTE BASOPHIL [2]: 0 CELLS/uL; ABSOLUTE EOSINOPHIL [2]: 42 CELLS/uL; ABSOLUTE LYMPHOCYTE [2]: 12584.67 CELLS/uL; ABSOLUTE MONOCYTE [2]: 382 CELLS/uL; ABSOLUTE SEGMENTED NEUTROPHIL [2]: 1124.67 CELLS/uL; BASOPHIL [2]: 0%; EOSINOPHIL [2]: 0.33%; ERYTHROCYTE COUNT [2]: 5.75 x10E6/uL; HEMATOCRIT [2]: 35.2%; HEMOGLOBIN [2]: 13.03 G/DL; LEUKOCYTE COUNT [2]: 14.13 x10E3/uL; LYMPHOCYTE [2]: 89%; MEAN CORPUSCULAR HEMOGLOBIN [2]: 22.7 pg; MEAN CORPUSCULAR HEMOGLOBIN CONCENTRATION [2]: 37.03 G/DL; MEAN CORPUSCULAR VOLUME [2]: 61.23 fL; MONOCYTE [2]: 2.67%; NEUTROPHIL [2]: 8%; NUCLEATED RED BLOOD CELLS [2]: 0.33 /100WBC; PLATELET COUNT [2]: 1425.67 x10E3/uL; ALANINE AMINOTRANSFERASE [2]: 67.67 u/L; ALBUMIN [2]: 4.13 G/DL; ALKALINE PHOSPHATASE [2]: 355 u/L; ASPARTATE AMINOTRANSFERASE [2]: 102.67 u/L; BLOOD UREA NITROGEN [2]: 13.67 mg/dL; CARBON DIOXIDE [2]: 25.67 mmol/L; CHLORIDE [2]: 103.33 MEQ/L; CHOLESTEROL [2]: 81.67 mg/dL; CREATINE PHOSPHOKINASE [2]: 489 u/L; CREATININE [2]: 0.15 mg/dL; GLUCOSE [2]: 140.67 mg/dL; LACTATE DEHYDROGENASE [2]: 475.67 u/L; LIPASE [2]: 10 u/L; PHOSPHORUS [2]: 10.73 mg/dL; POTASSIUM [2]: 6.23 MEQ/L; SODIUM [2]: 143.87 MEQ/L; TOTAL BILIRUBIN [2]: 0.2 mg/dL; TOTAL PROTEIN [2]: 5.5 G/DL; ABSOLUTE BASOPHIL [3]: 0 CELLS/uL; ABSOLUTE EOSINOPHIL [3]: 97 CELLS/uL; ABSOLUTE LYMPHOCYTE [3]: 18780.67 CELLS/uL; ABSOLUTE MONOCYTE [3]: 55.33 CELLS/uL; ABSOLUTE SEGMENTED NEUTROPHIL [3]: 967 CELLS/uL; BASOPHIL [3]: 0%; EOSINOPHIL [3]: 0.33%; ERYTHROCYTE COUNT [3]: 6.33 x10E6/uL; HEMATOCRIT [3]: 38.23%; HEMOGLOBIN [3]: 14.4 G/DL; LEUKOCYTE COUNT [3]: 19.9 x10E3/uL; LYMPHOCYTE [3]: 94%; MEAN CORPUSCULAR HEMOGLOBIN [3]: 22.73 pg; MEAN CORPUSCULAR HEMOGLOBIN CONCENTRATION [3]: 37.67 G/DL; MEAN CORPUSCULAR VOLUME [3]: 60.37 fL; MONOCYTE [3]: 0.33%; NEUTROPHIL [3]: 5.33%; NUCLEATED RED BLOOD CELLS [3]: 0.33 /100WBC; PLATELET COUNT [3]: 1095 x10E3/uL; ALANINE AMINOTRANSFERASE [3]: 64.33 u/L; ALBUMIN [3]: 4.57 G/DL; ALKALINE PHOSPHATASE [3]: 399 u/L; ASPARTATE AMINOTRANSFERASE [3]: 93.67 u/L; BLOOD UREA NITROGEN [3]: 16.33 mg/dL; CARBON DIOXIDE [3]: 26 mmol/L; CHLORIDE [3]: 107 MEQ/L; CHOLESTEROL [3]: 64.67 mg/dL; CREATINE PHOSPHOKINASE [3]: 723.33 u/L; CREATININE [3]: 0.21 mg/dL; GLUCOSE [3]: 164.33 mg/dL; LACTATE DEHYDROGENASE [3]: 166.67 u/L; LIPASE [3]: 9.67 u/L; PHOSPHORUS [3]: 11.4 mg/dL; POTASSIUM [3]: 6.41 MEQ/L; SODIUM [3]: 146.6 MEQ/L; TOTAL BILIRUBIN [3]: 0.2 mg/dL; TOTAL PROTEIN [3]: 6.17 G/DL
